These results are taken from patent publication US8530408B2, “Substrates of N-end rule ubiquitylation and methods for measuring the ubiquitylation of these substrate” (Meso Scale Technologies LLC, priority 2002, dated 2013).

Test [1] has as its system HMGN2 ubiquitylation. Nature of the test: ECL assay for N-end rule ubiquitylation of HMGN2. The conditions noted are these: 1 mM inhibitor; rabbit reticulocyte lysate; 50 μM MG-132; 30° C.; FIG. 6(A),(B). In kind it is biochemical. The method, then: (§1) Protein was produced from the plasmid DNA in a transcription-translation reaction mixture containing rabbit reticulocyte lysate and SP6 RNA polymerase (TNT SP6 Quick Mix, Promega) and that was further supplemented with 20 μM methionine, 8-30 μg/ml plasmid DNA, 20 μg/ml biotinylated Lys-tRNA (transcend tRNA, Promega), and 50 μM of the proteosome inhibitor MG-132 (Calbiochem) in a total volume of 12.5 μl. Ubiquitylation of newly synthesized proteins occurred in the same reaction mixtures and was driven by the ubiquitylation system present in reticulocyte lysates. An ECL-based ubiquitylation assay (described below) was used to determine if the newly synthesized protein was ubiquitylated. […]
(§2) The reactions were allowed to proceed for a desired period of time at 30° C. In some experiments, several reaction time points were analyzed. […] Thereafter the plate was washed three times with 20 mM Tris-HCl, 0.004% Triton X-100 followed by addition of 150 μl of a buffered solution containing tripropylamine (MSD Read Buffer, Meso-Scale Discovery, Gaithersburg Md.) into each well. ECL signals from labels bound to the electrode surfaces were measured using a Sector HTS instrument.
High Mobility Group Chromosomal Protein 17 (now renamed HMGN2) was produced using IMAGE clone #3455121 and analyzed for its ability to act as an N-end rule substrate by ECL assay as described in Materials and Methods. […]

Test [2] concerns PinX1 ubiquitylation. In words: ECL assay for N-end rule ubiquitylation of PinX1. The format is biochemical. The conditions noted are these: 1 mM inhibitor; rabbit reticulocyte lysate; 50 μM MG-132; 30° C.; FIG. 9(A),(B). How it is done: as §1, §2
PinX1 was produced using IMAGE clone #3911679 and analyzed for its ability to act as an N-end rule substrate by ECL assay as described in the Materials and Methods.

In test [3] the test system is RGS4 ubiquitin/proteosome degradation via N-end rule pathway. In words: Denaturing gel analysis of N-end rule-dependent degradation of RGS4. In kind it is biochemical, rabbit. Particulars: [14C]-lysine, MG-132 omitted, SDS-PAGE time course, 30° C.; FIG. 2(C). How it is done: Proteins were synthesized as described in the previous section except that biotinylated Lys-tRNA was substituted with [^14C]-lysine, and MG-132 was omitted. The reactions were incubated at 30° C. for indicated times. They were stopped by transferring of aliquots of reactions into SDS-sample buffer. The samples were heated for 5 min at 95° C. and fractionated by SDS-PAGE on 4-20% gradient polyacrylamide gels. Gels were soaked in Amplify™ fluorographic reagent (Amersham Pharmacia Biotech), dried and exposed to X-ray films.
RGS4 was produced and characterized as an N-end rule substrate as described in the Materials and Methods section. RGS4 is a known Type 1 N-end rule ubiquitylation substrate (Davydov and Varshavsky, 2000, J. Biol. Chem., 275: 22931).

For test [4], the system named is tau ubiquitylation. Nature of the test: ECL assay for N-end rule ubiquitylation of tau. Particulars: 1 mM inhibitor; rabbit reticulocyte lysate; 50 μM MG-132; 30° C.; FIG. 3(A),(B). In kind it is biochemical. The method, then: as §1
(§3) The reactions were allowed to proceed for a desired period of time at 30° C. In some experiments, several reaction time points were analyzed. […] Thereafter the plate was washed three times with 20 mM Tris-HCl, 0.004% Triton X-100 followed by addition of 150 μl of a buffered solution containing tripropylamine (MSD Read Buffer, Meso-Scale Discovery, Gaithersburg Md.) into each well. ECL signals from labels bound to the electrode surfaces were measured using a Sector HTS instrument. […]

Test [5] has as its system aprataxin ubiquitylation. Nature of the test: ECL assay for N-end rule ubiquitylation of aprataxin. The format is biochemical. The conditions noted are these: 1 mM inhibitor (equivalent concentrations); rabbit reticulocyte lysate; 50 μM MG-132; 30° C.; FIG. 4(A),(B). How it is done: as §1, §2
Aprataxin was produced using IMAGE clone #3994375 and analyzed for its ability to act as an N-end rule substrate by ECL assay and by gel electrophoresis as described in the Materials and Methods.

For test [6], the system named is cdc6 ubiquitylation. Nature of the test: ECL assay for N-end rule ubiquitylation of CDC6. In kind it is biochemical. The conditions noted are these: 1 mM inhibitor; rabbit reticulocyte lysate; 50 μM MG-132; 30° C.; FIG. 7(A),(B). The method, then:
as §1, §2
Cell Cycle Controller cdc6 was produced using IMAGE clone #3867414 and analyzed for its ability to act as an N-end rule substrate by ECL assay and by gel electrophoresis as described in the Materials and Methods.

Test [7] relates to synaptotagmin-like protein 2 ubiquitylation. Nature of the test: ECL assay for N-end rule ubiquitylation of synaptotagmin-like protein 2. In kind it is biochemical. Particulars: 1 mM inhibitor; rabbit reticulocyte lysate; 50 μM MG-132; 30° C.; FIG. 5(A),(B). How it is done: as §1, §2
Synaptotagmin-like protein 2 was produced using IMAGE clone #3887550 and analyzed for its ability to act as an N-end rule substrate by ECL assay and by gel electrophores is as described in the Materials and Methods.

In test [8] the test system is HSPC144 ubiquitylation. Nature of the test: ECL assay for N-end rule ubiquitylation of HSPC144. Particulars: 1 mM inhibitor; rabbit reticulocyte lysate; 50 μM MG-132; 30° C.; FIG. 8(A),(B). The format is biochemical. The method, then: as §1, §2
HSPC144 was produced using IMAGE clone #3907737 and analyzed for its ability to act as an N-end rule substrate by ECL assay as described in the Materials and Methods.

Test [9] has as its system HMGN3 ubiquitylation. In words: ECL assay for N-end rule ubiquitylation of HMGN3. The format is biochemical. The conditions noted are these: 1 mM inhibitor; HMGN3 from clones #3890883 and #4749335, effect most pronounced for clone #4749335; rabbit reticulocyte lysate; 50 μM MG-132; 30° C.; FIG. 10. How it is done:
as §1, §2
HMGN3 was produced using IMAGE clones #3890883 and #4749335 and analyzed for its ability to act as an N-end rule substrate by ECL assay as described in Materials and Methods.

For test [10], the system named is RGS4 ubiquitylation. Nature of the test: ECL assay for N-end rule ubiquitylation of RGS4. The format is biochemical. The conditions noted are these: 1 mM inhibitor; rabbit reticulocyte lysate; 50 μM MG-132; 30° C.; FIG. 2(A),(B). The method, then: as §1, §3

Arg-β-Ala: the “% of HMGN2 ubiquitylation in the presence of specific N-end rule inhibitors compared to the reaction in the absence of the inhibitors” value in test [1] is listed as “inhibit HMGN2 ubiquitylation to a similar extent”. For the same substance, in test [2], the “% of PinX1 ubiquitylation in the presence of specific N-end rule inhibitors compared to the reaction in the absence of the inhibitors” value is recorded as “inhibit PinX1 ubiquitylation to a similar extent”. In addition, in [3], the “accumulation of the C-terminal fragment of RGS4 having the N-terminal Met removed (autoradiogram)” value is reported as “time dependent accumulation exclusively in the presence of Arg-β-Ala inhibitor”. Besides, in test [4], the “% of tau ubiquitylation in the presence of specific N-end rule inhibitors compared to the reaction in the absence of the inhibitors” value is reported as “inhibit tau ubiquitylation to a similar extent”. Moreover, the “% of aprataxin ubiquitylation in the presence of specific N-end rule inhibitors compared to the reaction in the absence of the inhibitors” value in [5] is “inhibit aprataxin ubiquitylation to a similar extent”. The “% of cdc6 ubiquitylation in the presence of specific N-end rule inhibitors compared to the reaction in the absence of the inhibitors” value in [6] is recorded as “inhibit cdc6 ubiquitylation to a similar extent”. In addition, the “% of synaptotagmin-like protein 2 ubiquitylation in the presence of specific N-end rule inhibitors compared to the reaction in the absence of the inhibitors” value in test [7] is recorded as “little to no effect”. Moreover, in [8], the “% of HSPC144 ubiquitylation in the presence of specific N-end rule inhibitors compared to the reaction in the absence of the inhibitors” value was “inhibit HSPC ubiquitylation to a similar extent”. Also, the “% of HMGN3 ubiquitylation in the presence of specific N-End Rule inhibitors compared to the reaction in the absence of the inhibitors” value in test [9] is listed as “inhibit HMGN3 ubiquitylation to a greater extent”. Moreover, the “% of RGS4 ubiquitylation in the presence of specific N-end rule inhibitors compared to the reaction in the absence of the inhibitors” value in [10] is on record as “inhibit RGS4 ubiquitylation to a similar extent”.
Trp-Ala: in test [1], the “% of HMGN2 ubiquitylation in the presence of specific N-end rule inhibitors compared to the reaction in the absence of the inhibitors” value is “little to no effect”. Further, the “% of PinX1 ubiquitylation in the presence of specific N-end rule inhibitors compared to the reaction in the absence of the inhibitors” value in test [2] is “no effect”. Further, the “% of tau ubiquitylation in the presence of specific N-end rule inhibitors compared to the reaction in the absence of the inhibitors” value in [4] is reported as “little to no effect”. In [5], the “% of aprataxin ubiquitylation in the presence of specific N-end rule inhibitors compared to the reaction in the absence of the inhibitors” value is listed as “little to no effect”. Further, in test [6], the “% of cdc6 ubiquitylation in the presence of specific N-end rule inhibitors compared to the reaction in the absence of the inhibitors” value was “smaller effect”. In addition, in test [7], the “% of synaptotagmin-like protein 2 ubiquitylation in the presence of specific N-end rule inhibitors compared to the reaction in the absence of the inhibitors” value is “inhibit synaptotagmin-like protein 2 ubiquitylation to a similar extent”. Also, in test [8], the “% of HSPC144 ubiquitylation in the presence of specific N-end rule inhibitors compared to the reaction in the absence of the inhibitors” value was “no effect”. Besides, the “% of HMGN3 ubiquitylation in the presence of specific N-End Rule inhibitors compared to the reaction in the absence of the inhibitors” value in [9] is reported as “little effect”. Further, the “% of RGS4 ubiquitylation in the presence of specific N-end rule inhibitors compared to the reaction in the absence of the inhibitors” value in test [10] is “little to no effect”.
